The results in this text go back to patent US7951794B2, “Thiophene derivatives” (Actelion Pharmaceuticals Ltd., priority 2005, dated 2011).

Sequence of recombinant human S1P1 receptor (P21453 whole entry): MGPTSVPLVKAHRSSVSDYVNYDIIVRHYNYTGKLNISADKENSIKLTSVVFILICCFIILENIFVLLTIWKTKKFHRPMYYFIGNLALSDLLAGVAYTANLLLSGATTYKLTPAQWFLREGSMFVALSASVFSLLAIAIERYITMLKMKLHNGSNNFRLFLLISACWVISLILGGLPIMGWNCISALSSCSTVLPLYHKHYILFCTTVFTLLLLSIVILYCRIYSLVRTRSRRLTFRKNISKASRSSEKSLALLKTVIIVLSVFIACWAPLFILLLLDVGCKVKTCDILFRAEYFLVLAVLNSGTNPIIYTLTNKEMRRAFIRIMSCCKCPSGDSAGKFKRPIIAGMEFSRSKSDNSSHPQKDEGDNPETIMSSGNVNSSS

The target in one test is recombinant human S1P1 receptor (Homo sapiens, UniProt P21453). The test is described as follows: GTPγS assay to determine EC50 values. The test is classed as biochemical. The note with it: 35S-GTPγS binding, membrane preparations of CHO cells expressing recombinant human S1P1 receptor, pH 7.4. The procedure:
GTPγS binding assays are performed in 96 well microtiter plates (Nunc, 442587) in a final volume of 200 μl, using membrane preparations of CHO cells expressing recombinant human S1P1 receptor. Assay conditions are 20 mM Hepes (Fluka, 54461), 100 mM NaCl (Fluka, 71378), 5 mM MgCl2 (Fluka, 63064), 0.1% BSA (Calbiochem, 126609), 1 μM GDP (Sigma, G-7127), 2.5% DMSO (Fluka, 41644), […] ^35S-GTPγS (Amersham Biosciences, SJ1320). The pH is 7.4. Test compounds are dissolved and diluted in 100% DMSO and pre-incubated at room temperature for 30 min in 150 μl of the above assay buffer, in the absence of ^35S-GTPγS. After addition of 50 μl of ^35S-GTPγS, the assay is incubated for 1 h at room temperature.
The assay is terminated by transfer of the reaction mixture to a Multiscreen plate (Millipore, MAHFC1H60) using a cell harvester from Packard Biosciences, and the plates are washed with ice-cold 10 mM Na2HPO4/NaH2PO4 (70%/30%), dried, sealed at the bottom and, after addition of 25 μl MicroScint20 (Packard Biosciences, order no. 6013621), sealed on the top. Membrane-bound ^35S-GTPγS is measured with a TopCount from Packard Biosciences.
EC50 is the concentration of agonist inducing 50% of the maximal specific ^35S-GTPγS binding. Specific binding is determined by subtracting non-specific binding from maximal binding. Maximal binding is the amount of cpm bound to the Multiscreen plate in the presence of 10 μM of S1P. Non-specific binding is the amount of binding in the absence of an agonist in the assay.
In general terms: GTPγS is a poorly hydrolysed GTP analogue; its binding reports G protein activation.
For the molecule `CCc1sc(C(=O)CCc2cc(C)c(OC[C@@H](O)CO)c(C)c2)cc1-c1ccccc1C` [Example 20, 3-[4-((S)-2,3-dihydroxy-propoxy)-3,5-dimethyl-phenyl]-1-(5-ethyl-4-o-tolyl-thiophen-2-yl)-propan-1-one], the EC50 – broadly, the concentration that produces a half-maximal response – amounted to 6.3 nM. Still for that read-out and setting: the result for `CCc1sc(C(=O)CCc2cc(C)c(CC(O)CO)c(C)c2)cc1-c1ccccc1` (stereo not shown) [Example 11, 3-[4-(2,3-dihydroxy-propyl)-3,5-dimethyl-phenyl]-1-(5-ethyl-4-phenyl-thiophen-2-yl)-propan-1-one] reads 18.3 nM. Same read-out and setting: the result for `CCc1sc(C(=O)CCc2cc(C)c(OC[C@@H](O)CO)c(C)c2)cc1-c1ccccc1OC` [Example 50] reads 11.5 nM.

Regarding `CCc1sc(C(=O)CCc2cc(C)c(OC[C@@H](O)CO)c(C)c2)cc1-c1ccccc1` [Example 10, 3-[4-((S)-2,3-dihydroxy-propoxy)-3,5-dimethyl-phenyl]-1-(5-ethyl-4-phenyl-thiophen-2-yl)-propan-1-one], the EC50 amounted to 6.7 nM. Same read-out and setting: the result for `CCCc1sc(C(=O)CCc2cc(C)c(OC[C@@H](O)CO)c(C)c2)cc1-c1ccccc1` [Example 24, 3-[4-((S)-2,3-dihydroxy-propoxy)-3,5-dimethyl-phenyl]-1-(4-phenyl-5-propyl-thiophen-2-yl)-propan-1-one] reads 16.4 nM; that for `CCc1ccccc1-c1cc(C(=O)CCc2cc(C)c(OC[C@@H](O)CO)c(C)c2)sc1CC` [Example 31], 9.3 nM.

In the next test the test system is circulating lymphocytes. The test is described as follows: Assessment of in vivo efficacy: circulating lymphocytes after oral administration. The settings on record: 3 h after oral administration of 10 mg/kg to normotensive male Wistar rats, compared to vehicle-treated group. As to the method:
The efficacy of the compounds of Formula (I) is assessed by measuring the circulating lymphocytes after oral administration of 3 to 30 mg/kg of a compound of Formula (I) to normotensive male Wistar rats. The animals are housed in climate-controlled conditions with a 12 h-light/dark cycle, and have free access to normal rat chow and drinking water. Blood is collected before and 3, 6 and 24 h after drug administration. Full blood is subjected to hematology using Advia Hematology system (Bayer Diagnostics, Zürich, Switzerland).
All data are presented as mean±SEM. Statistical analyses are performed by analysis of variance (ANOVA) using Statistica (StatSoft) and the Student-Newman-Keuls procedure for multiple comparisons. The null hypothesis is rejected when p<0.05.
With `CCc1sc(C(=O)CCc2cc(C)c(OC[C@@H](O)CO)c(C)c2)cc1-c1ccccc1` [Example 10, 3-[4-((S)-2,3-dihydroxy-propoxy)-3,5-dimethyl-phenyl]-1-(5-ethyl-4-phenyl-thiophen-2-yl)-propan-1-one], the Lymphocyte counts is on record as −48.5%.
